Among the data in patent US9474790B2, “Stable, protracted GLP-1/glucagon receptor co-agonists for medical use” (Novo Nordisk A/S, priority 2013, dated 2016) are IC50 values, retold here.

Numbered stars: 1 amine (or outer) side, 2 acyl side, 3 side chain; on linkers, the order of the positions; unused ones are H or OH. Bridge positions count the residues as written; N and C are the ends. Square brackets hold non-standard residues; d marks the D form. Side chains are listed from the residue outwards. Peptide text beside a SMILES is read from it. I, II: the chains in the order shown. * marks the point of attachment. C18 diacid = O=C(O)CCCCCCCCCCCCCCCCC(=O)*; γGlu = O=C(O)[C@H](CCC(=O)[*:2])N[*:1]; Ac4c = NC1(C(=O)O)CCC1; AEEA = NCCOCCOCC(=O)O; Aib = CC(C)(N)C(=O)O

In the assay the target is T1, human glucagon receptor (Homo sapiens, UniProt P47871).
T1 construct: expressed in transfected cells; host or cells: BHK cells (parent BHK570, CRE luciferase clone BHK/KZ10-20-48), clone pLJ6'-4-25
T1 sequence (P47871 26-477): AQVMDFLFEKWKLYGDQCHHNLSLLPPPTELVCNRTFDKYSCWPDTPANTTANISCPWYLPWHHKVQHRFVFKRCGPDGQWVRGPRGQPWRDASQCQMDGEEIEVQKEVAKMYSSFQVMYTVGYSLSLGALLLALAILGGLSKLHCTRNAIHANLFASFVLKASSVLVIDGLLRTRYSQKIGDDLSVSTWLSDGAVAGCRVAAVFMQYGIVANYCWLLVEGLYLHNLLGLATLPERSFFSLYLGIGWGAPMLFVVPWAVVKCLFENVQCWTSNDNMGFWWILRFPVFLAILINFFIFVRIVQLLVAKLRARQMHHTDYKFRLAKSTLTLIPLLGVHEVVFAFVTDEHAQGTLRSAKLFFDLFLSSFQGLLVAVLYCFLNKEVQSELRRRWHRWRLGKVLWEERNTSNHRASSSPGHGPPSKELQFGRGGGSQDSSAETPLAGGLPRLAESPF
As to the kind of experiment: Glucagon receptor binding, 125I-glucagon displacement SPA on isolated membranes. To be noted: displacement of 125I-glucagon from membranes; read-out: IC50 GlucR. In outline:
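Membranes from BHK cells stably expressing human glucagon receptor incubated 2 h at 25 °C with [125I]-glucagon (25 μl of 480 pM solution) and serial compound dilutions in WGA SPA format, pH 7.4 buffer with 0.1% ovalbumin. Albumin at max 0.001% or 0.2% final. IC50 from non-linear regression.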
Consider `CC(C)C[C@H](NC(=O)[C@H](Cc1ccc(O)cc1)NC(=O)[C@H](CCCCN)NC(=O)[C@H](CO)NC(=O)[C@H](CC(C)C)NC(=O)[C@H](CC(=O)O)NC(=O)[C@H](CO)NC(=O)[C@@H](NC(=O)[C@H](Cc1ccccc1)NC(=O)[C@@H](NC(=O)CNC(=O)[C@H](CCC(N)=O)NC(=O)C1(NC(=O)[C@@H](N)Cc2c[nH]cn2)CCC1)[C@@H](C)O)[C@@H](C)O)C(=O)N[C@@H](CCC(=O)O)C(=O)N[C@@H](CCC(=O)O)C(=O)N[C@@H](CCCNC(=N)N)C(=O)N[C@@H](CCCNC(=N)N)C(=O)N[C@@H](C)C(=O)N[C@@H](CCCNC(=N)N)C(=O)N[C@@H](CC(=O)O)C(=O)N[C@@H](Cc1ccccc1)C(=O)N[C@H](C(=O)N[C@@H](CCC(N)=O)C(=O)N[C@@H](Cc1c[nH]c2ccccc12)C(=O)N[C@@H](CC(C)C)C(=O)N[C@@H](CC(C)C)C(=O)N[C@@H](CCCCNC(=O)CNC(=O)[C@H](CO)NC(=O)[C@H](CCC(=O)O)NC(=O)CNC(=O)[C@H](CO)NC(=O)CC[C@H](NC(=O)CC[C@H](NC(=O)CCCCCCCCCCCCCCCCC(=O)O)C(=O)O)C(=O)O)C(=O)N[C@H](C(N)=O)[C@@H](C)O)C(C)C` [Example 16, N^ε28-[2-[[(2S)-2-[[(2S)-4-carboxy-2-[[2-[[(2S)-2-[[(4S)-4-carboxy-4-[[(4S)-4-carboxy-4-(17-carboxyheptadecanoylamino)butanoyl]amino]butanoyl]amino]-3-hydroxypropanoyl]amino]acetyl]amino]butanoyl]amino]-3-hydroxypropanoyl]amino]acetyl]-[Acb2,Leu10,Glu15,Glu16,Arg20,Leu27,Lys28]-Glucagon amide] (I: H-H[Ac4c]QGTFTSDLSKYLEERRARDFVQWLLKT-NH2 / II: {C18 diacid-γGlu-γGlu}-SGESG; amide I:28-II:C; N-terminus assumed), for which the half-maximal inhibitory concentration (IC50) amounted to 3.9 nM. Take `CC(C)C[C@H](NC(=O)[C@H](Cc1ccc(O)cc1)NC(=O)[C@H](CCCCN)NC(=O)[C@H](CO)NC(=O)[C@H](CC(C)C)NC(=O)[C@H](CC(=O)O)NC(=O)[C@H](CO)NC(=O)[C@@H](NC(=O)[C@H](Cc1ccccc1)NC(=O)[C@@H](NC(=O)CNC(=O)[C@H](Cc1c[nH]cn1)NC(=O)C(C)(C)NC(=O)[C@@H](N)Cc1c[nH]cn1)[C@@H](C)O)[C@@H](C)O)C(=O)N[C@@H](CCC(=O)O)C(=O)N[C@@H](CO)C(=O)N[C@@H](CCCNC(=N)N)C(=O)N[C@@H](CCCNC(=N)N)C(=O)N[C@@H](C)C(=O)N[C@@H](CCCNC(=N)N)C(=O)N[C@@H](CCC(=O)O)C(=O)N[C@@H](Cc1ccccc1)C(=O)N[C@H](C(=O)N[C@@H](CCC(N)=O)C(=O)N[C@@H](Cc1c[nH]c2ccccc12)C(=O)N[C@@H](CC(C)C)C(=O)N[C@@H](CC(C)C)C(=O)N[C@@H](CCCCNC(=O)CC[C@H](NC(=O)COCCOCCNC(=O)COCCOCCNC(=O)CC[C@H](NC(=O)CC[C@H](NC(=O)CCCCCCCCCCCCCCCCC(=O)O)C(=O)O)C(=O)O)C(=O)O)C(=O)N[C@H](C(N)=O)[C@@H](C)O)C(C)C` [Example 30, N^ε28-[(4S)-4-carboxy-4-[[2-[2-[2-[[2-[2-[2-[[(4S)-4-carboxy-4-[[(4S)-4-carboxy-4-(17-carboxyheptadecanoylamino)butanoyl]amino]butanoyl]amino]ethoxy]ethoxy]acetyl]amino]ethoxy]ethoxy]acetyl]amino]butanoyl]-[Aib2,His3,Leu10,Glu15,Arg20,Glu21,Leu27,Lys28]-Glucagon amide] (H-H[Aib]HGTFTSDLSKYLESRRAREFVQWLLK([γGlu-AEEA-AEEA-γGlu-γGlu-C18 diacid])T-NH2; N-terminus assumed): the IC50 came out at 0.5 nM.

`CC(C)C[C@H](NC(=O)[C@H](Cc1ccc(O)cc1)NC(=O)[C@H](CCCCN)NC(=O)[C@H](CO)NC(=O)[C@H](CC(C)C)NC(=O)[C@H](CC(=O)O)NC(=O)[C@H](CO)NC(=O)[C@@H](NC(=O)[C@H](Cc1ccccc1)NC(=O)[C@@H](NC(=O)CNC(=O)[C@H](CCC(N)=O)NC(=O)C1(NC(=O)[C@@H](N)Cc2c[nH]cn2)CCC1)[C@@H](C)O)[C@@H](C)O)C(=O)N[C@@H](CCC(=O)O)C(=O)N[C@@H](CO)C(=O)N[C@@H](CCCNC(=N)N)C(=O)N[C@@H](CCCNC(=N)N)C(=O)N[C@@H](C)C(=O)N[C@@H](CCCNC(=N)N)C(=O)N[C@@H](CCC(=O)O)C(=O)N[C@@H](Cc1ccccc1)C(=O)N[C@H](C(=O)N[C@@H](CCC(N)=O)C(=O)N[C@@H](Cc1c[nH]c2ccccc12)C(=O)N[C@@H](CC(C)C)C(=O)N[C@@H](CC(C)C)C(=O)N[C@@H](CCCCNC(=O)CC[C@H](NC(=O)CC[C@H](NC(=O)COCCOCCNC(=O)COCCOCCNC(=O)CC[C@H](NC(=O)CCCCCCCCCCCCCCCCC(=O)O)C(=O)O)C(=O)O)C(=O)O)C(=O)N[C@H](C(N)=O)[C@@H](C)O)C(C)C` [Example 44, N^ε28-[(4S)-4-carboxy-4-[[(4S)-4-carboxy-4-[[2-[2-[2-[[2-[2-[2-[[(4S)-4-carboxy-4-(17-carboxyheptadecanoylamino)butanoyl]amino]ethoxy]ethoxy]acetyl]amino]ethoxy]ethoxy]acetyl]amino]butanoyl]amino]butanoyl]-[Acb2,Leu10,Glu15,Arg20,Glu21,Leu27,Lys28]-Glucagon amide] (H-H[Ac4c]QGTFTSDLSKYLESRRAREFVQWLLK([γGlu-γGlu-AEEA-AEEA-γGlu-C18 diacid])T-NH2; N-terminus assumed): the half-inhibitory concentration (IC50) amounted to 7.2 nM. Then `CC(C)C[C@H](NC(=O)[C@H](Cc1ccc(O)cc1)NC(=O)[C@H](CCCCN)NC(=O)[C@H](CO)NC(=O)[C@H](CC(C)C)NC(=O)[C@H](CC(=O)O)NC(=O)[C@H](CO)NC(=O)[C@@H](NC(=O)[C@H](Cc1ccccc1)NC(=O)[C@@H](NC(=O)CNC(=O)[C@H](CCC(N)=O)NC(=O)C(C)(C)NC(=O)[C@@H](N)Cc1c[nH]cn1)[C@@H](C)O)[C@@H](C)O)C(=O)N[C@@H](CC(=O)O)C(=O)N[C@@H](C)C(=O)N[C@@H](CCCNC(=N)N)C(=O)N[C@@H](CCCNC(=N)N)C(=O)N[C@@H](C)C(=O)N[C@@H](CCCNC(=N)N)C(=O)N[C@@H](CCC(=O)O)C(=O)N[C@@H](Cc1ccccc1)C(=O)N[C@H](C(=O)N[C@@H](CCC(N)=O)C(=O)N[C@@H](Cc1c[nH]c2ccccc12)C(=O)N[C@@H](CC(C)C)C(=O)N[C@@H](CC(C)C)C(=O)N[C@@H](CCCCNC(=O)CC[C@H](NC(=O)CC[C@H](NC(=O)COCCOCCNC(=O)COCCOCCNC(=O)CC[C@H](NC(=O)CCCCCCCCCCCCCCCCC(=O)O)C(=O)O)C(=O)O)C(=O)O)C(=O)N[C@H](C(N)=O)[C@@H](C)O)C(C)C` [Example 43, N^ε28-[(4S)-4-carboxy-4-[[(4S)-4-carboxy-4-[[2-[2-[2-[[2-[2-[2-[[(4S)-4-carboxy-4-(17-carboxyheptadecanoylamino)butanoyl]amino]ethoxy]ethoxy]acetyl]amino]ethoxy]ethoxy]acetyl]amino]butanoyl]amino]butanoyl]-[Aib2,Leu10,Ala16,Arg20,Glu21,Leu27,Lys28]-Glucagon amide] (H-H[Aib]QGTFTSDLSKYLDARRAREFVQWLLK([γGlu-γGlu-AEEA-AEEA-γGlu-C18 diacid])T-NH2; N-terminus assumed), with 5.6 nM; and `CC(C)C[C@H](NC(=O)[C@H](Cc1c[nH]c2ccccc12)NC(=O)[C@H](C)NC(=O)[C@@H](NC(=O)[C@H](Cc1ccccc1)NC(=O)[C@H](CCC(=O)O)NC(=O)[C@H](CCCNC(=N)N)NC(=O)[C@H](C)NC(=O)[C@H](CCCNC(=N)N)NC(=O)[C@H](CCCNC(=N)N)NC(=O)[C@H](CCCCNC(=O)CC[C@H](NC(=O)COCCOCCNC(=O)COCCOCCNC(=O)CC[C@H](NC(=O)CC[C@H](NC(=O)CCCCCCCCCCCCCCCCC(=O)O)C(=O)O)C(=O)O)C(=O)O)NC(=O)[C@H](CC(=O)O)NC(=O)[C@H](CC(C)C)NC(=O)[C@H](Cc1ccc(O)cc1)NC(=O)[C@H](CCCCN)NC(=O)[C@H](CO)NC(=O)[C@H](CC(C)C)NC(=O)[C@H](CC(=O)O)NC(=O)[C@H](CO)NC(=O)[C@@H](NC(=O)[C@H](Cc1ccccc1)NC(=O)[C@@H](NC(=O)CNC(=O)[C@H](CCC(N)=O)NC(=O)C(C)(C)NC(=O)[C@@H](N)Cc1c[nH]cn1)[C@@H](C)O)[C@@H](C)O)C(C)C)C(=O)N[C@@H](CC(C)C)C(=O)N[C@@H](CC(N)=O)C(=O)N[C@H](C(N)=O)[C@@H](C)O` [Example 19, N^ε29-[(4S)-4-carboxy-4-[[2-[2-[2-[[2-[2-[2-[[(4S)-4-carboxy-4-[[(4S)-4-carboxy-4-(17-carboxyheptadecanoylamino)butanoyl]amino]butanoyl]amino]ethoxy]ethoxy]acetyl]amino]ethoxy]ethoxy]acetyl]amino]butanoyl]-[Aib2,Leu10,Lys16,Arg20,Glu21,Ala24,Leu27]-Glucagon amide] (H-H[Aib]QGTFTSDLSKYLDK([γGlu-AEEA-AEEA-γGlu-γGlu-C18 diacid])RRAREFVAWLLNT-NH2; N-terminus assumed), with 8.5 nM.

As a reminder, the IC50 is the concentration needed to halve the response being measured.
